Measured values as given in US20200247897A1, “THERAPEUTIC ANTIBODIES BASED ON MUTATED IGG HEXAMERS” (GENMAB B.V., priority 2017, published 2020).
Like-named read-outs stand apart in the source and are kept apart here.

Columns and labels:
LS-411N = test: Drug combination screen (ATPlite, Synergy Score), LS-411N; format: cell-based, human
SW480 = test: Drug combination screen (ATPlite, Synergy Score), SW480; format: cell-based, human
DLD-1 = test: Drug combination screen (ATPlite, Synergy Score), DLD-1
HCT 116 = test: Drug combination screen (ATPlite, Synergy Score), HCT 116
SNU-C2B = test: Drug combination screen (ATPlite, Synergy Score), SNU-C2B
[1] = compound in combination with IgG1-hDR5-01-G56T-E430G + IgG1-hDR5-05-E430G, LS-411N, 72 hour ATPlite, 6x6 matrix
[2] = compound in combination with IgG1-hDR5-01-G56T-E430G + IgG1-hDR5-05-E430G, SW480, 72 hour ATPlite, 6x6 matrix
[3] = compound in combination with IgG1-hDR5-01-G56T-E430G + IgG1-hDR5-05-E430G, DLD-1, 120 hour ATPlite, 6x6 matrix
[4] = compound in combination with IgG1-hDR5-01-G56T-E430G + IgG1-hDR5-05-E430G, HCT 116, 120 hour ATPlite, 6x6 matrix
[5] = compound in combination with IgG1-hDR5-01-G56T-E430G + IgG1-hDR5-05-E430G, SNU-C2B, 72 hour ATPlite, 6x6 matrix

SMILES	Synergy Score LS-411N (LS-411N; [1])	Synergy Score SW480 (SW480; [2])	Synergy Score DLD-1 (DLD-1; [3])	Synergy Score HCT-116 (HCT 116; [4])	Synergy Score SNU-C2B (SNU-C2B; [5])	Synergy Score LS-411N (LS-411N)	Synergy Score SW480 (SW480)	Synergy Score DLD-1 (DLD-1)	Synergy Score HCT-116 (HCT 116)	Synergy Score SNU-C2B (SNU-C2B)
CC1(C)CCC(CN2CCN(c3ccc(C(=O)NS(=O)(=O)c4ccc(NCC5CCOCC5)c([N+](=O)[O-])c4)c(Oc4cnc5[nH]ccc5c4)c3)CC2)=C(c2ccc(Cl)cc2)C1 [ABT-199]	0.1	0	0	0	0	–	–	–	–	–
CCN1CCN(c2ccc(Nc3cc(N(C)C(=O)Nc4c(Cl)c(OC)cc(OC)c4Cl)ncn3)cc2)CC1 [BGJ398]	1.4	1.6	1	0.1	0.8	–	–	–	–	–
CN(C)CCCn1cc(C2=C(c3c[nH]c4ccccc34)C(=O)NC2=O)c2ccccc21 [GF 109203X]	–	–	–	–	–	5.3	6.2	4.3	3	1.6
CN(C)CC[C@H](CSc1ccccc1)Nc1ccc(S(=O)(=O)NC(=O)c2ccc(N3CCN(Cc4ccccc4-c4ccc(Cl)cc4)CC3)cc2)cc1[N+](=O)[O-] [ABT-737]	4.2	7.5	1.5	0	1.1	–	–	–	–	–
OCCn1cc(-c2ccc3c(c2)CC/C3=N\O)c(-c2ccncc2)n1 [GDC-0879]	0.4	1.6	0.1	0.2	0.7	–	–	–	–	–
CC1(C)CCC(c2ccc(Cl)cc2)=C(CN2CCN(c3ccc(C(=O)NS(=O)(=O)c4ccc(N[C@H](CCN5CCOCC5)CSc5ccccc5)c(S(=O)(=O)C(F)(F)F)c4)cc3)CC2)C1 [ABT-263]	7.6	8	3.4	0	1	–	–	–	–	–
COc1cc2nccc(Oc3ccc(NC(=O)C4(C(=O)Nc5ccc(F)cc5)CC4)cc3)c2cc1OC [XL184]	5.8	6	4.1	1	1.5	–	–	–	–	–
O=C(/C=C/c1cccc(S(=O)(=O)Nc2ccccc2)c1)NO [Belinostat]	4.5	10.2	8.6	4.1	16.4	–	–	–	–	–
N.N.[Cl][Pt][Cl] [Cisplatin]	15.4	18.9	8.8	6.7	12.9	–	–	–	–	–
Cn1c(=O)n(-c2ccc(C(C)(C)C#N)cc2)c2c3cc(-c4cnc5ccccc5c4)ccc3ncc21 [BEZ235]	1.1	3.2	2.4	1.4	5.4	–	–	–	–	–
Nc1cccc2c1CN(C1CCC(=O)NC1=O)C2=O (centres unmarked) [Lenalidomide]	0.1	0	0	0	0.2	–	–	–	–	–
CNC(=O)c1cc(Oc2ccc(NC(=O)Nc3ccc(Cl)c(C(F)(F)F)c3)cc2)ccn1 [Sorafenib]	6	3.9	2.6	0.5	2.9	–	–	–	–	–
Cn1cc(C2=C(c3ccc(Cl)cc3Cl)C(=O)NC2=O)c2ccccc21 [SB-216763]	1.1	1.4	0.5	0.1	0.3	–	–	–	–	–
